Assay results: US9498505B2, “Embelia concinna extract comprising flavonoids in cosmetic and pharmaceutical compositions” (BAYER CONSUMER CARE AG, priority 2012, dated 2016)
Values joined by “and” are separate entries in the source; they are usually repeats but may differ in a detail not shown here. Identical values can stand only once.

Legend:
human neutrophils [1] = test: LTB4 release by neutrophils stimulated with opsonised zymosan (ELISA); assay type: cell-based
Method: (§1) The purpose of this study is the evaluation of the dry Embelia extract on the production of LTB4 (leucotriens B4) and PGE-2 (prostaglandin E-2) in human neutrophils. Venous blood from healthy donors was collected into tubes containing anticoagulant and sedimented with Dextran (Dextran T500). The supernatant was layered on Ficoll-Hypaque (density 1,077) and centrifuged at 400 g for 20 min. The cell pellet was washed in Tyrode (in mM: NaCl 137; KCl 2.6; glucose 5.6; HEPES 4.2; pH 7.4). Contaminating red blood corpuscules were lyzed. The cells were resuspended at 2.106 cells/ml in the Tyrode buffer supplemented with CaCl2 and MgCl2 (1.3 and 1 mM, respectively). Cells (2.106 cells/ml) were incubated at 37° C. in the presence or absence of the products to be tested during 15 min and then stimulated with opsonised zymosan (1 mg/ml) during 10 min. LTB4 assay was performed using a kit ELISA (Thermo Fisher ref. EHL LTB4). The quantity of LTB4 was expressed in pg/ml. PGE2 assay was performed using a kit ELISA (Assay designs ref 900-001 and SPIBIO ref 514010). The quantity of PGE2 was expressed in pg/ml. Data represent the means of values measured in one supernatant (non stimulated cells) or three supernatants (stimulated cells). Each measurement was assessed in duplicate. The means of the data were compared to the control condition (Student's t test-comparison of means—statistical significance at 95% if p<0.05* and at 99% if p<0.01**). The percentage of inhibition was calculated as follows: % inhibition=100×[(LTB4 treated with ECC (stimulated)/LTB4 control (stimulated)×100]

[2] = system: sensory neurons from dorsal root ganglia; test: Substance P release induced by capsaicin in sensory neurons (ELISA); assay type: cell-based, newborn Wistar rat
Method: (§2) FIG. 3: Evaluation by Elisa assay of substance P release. Protocol: in vitro test on sensory neurons, sensory neurons from dorsal root ganglia of newborn Wistar rat, pre-treatment with Embelia extract for 30 min, stimulation with capsaicin (0.3 μM) for 30 min, tested vs capsazepine (30 μM) as standard reference.
(§3) Test was performed with liquid Embelia extract according to example 1 to measure its activity on release of substance P or CGRP induced by capsaicin in sensory neurons models. Cells were isolated from dorsal root ganglia of newborn Wistar rat. Cells were cultured at 37° C., 5% CO2 and culture medium concerned DMEM-Ham F12 supplemented with N2 complement 1%, antibiotics, L-glutamine 2 mM, nerve growth factor beta 20 ng/ml, neutrophin 5 ng/ml.
(§4) Sensory neurons were then seeded in culture medium containing or not containing (control) the test compound or the reference (capsazepine at 30 μM) and cells were pre-incubated for 30 minutes. Cells were then stimulated or not stimulated (non-stimulation control) with capsaicin (a pungent and irritating agent from hot chili pepper) at 0.3 μM and incubated for 30 minutes. All experimental conditions were performed in n=3. At the end of incubation, the quantity of neuromediators (Substance P or CGRP) in culture supernatants was measured using respective ELISA kit according to the supplier's instructions. The inter-group comparisons were performed by Student's t-test for data management.
(§5) Results are expressed in % according to the following formulas: […]

[3] = system: sensory neurons from dorsal root ganglia; test: CGRP release induced by capsaicin in sensory neurons (ELISA); assay type: cell-based, newborn Wistar rat
Method: as §2, with “FIG. 4:” for “FIG. 3:”, “of CGRP” for “of substance P”, “neurons, Sensory” for “neurons, sensory”
as §3, §4, §5

[4] = system: sensory neurons from dorsal root ganglia; test: Viability (MTT) of sensory neurons; assay type: cell-based, newborn Wistar rat; conditions: Capsazepine 30 μM
Method: A preliminary cytotoxicity test to select doses for further assay was performed with viability test (MMT assay).

[5] = system: human basophils (KU812 cell line); test: Histamine release from KU812 basophils after CP48/80-induced degranulation (ELISA); assay type: cell-based
Method: FIG. 1: Evaluation by Elisa assay of histamine release after induced basophils degranulation. Protocol: in vitro test on human basophils (KU812 cell line), pre-treatment with Embelia extract for 20 min, stimulation with CP48/80 (10 μg/ml) for 20 min, tested vs cromoglycate (10 nM) as standard reference. Test was performed on liquid Embelia extract according to example 1 to measure its activity on degranulation of human basophils (KU812 cell line) stimulated with CP48/80. Effects on degranulation were evaluated by measuring histamine release after stimulation. Cells were cultured at 37° C., 5% CO2 and culture medium concerned EBSS supplemented with CaCl2 1.8 mM, MgCl2 0.8 mM and Bovine serum albumine (BSA) 0.1%. KU812 cells were then seeded in culture medium containing or not (control) the test compound or the reference (cromoglycate at 10 mM) and cells were pre-incubated for 20 minutes. Cells were then stimulated or not (non-stimulated control) with histamine release inducer CP48/80 at 10 μg/ml and incubated for 20 minutes. All experimental conditions were performed in n=3. At the end of incubation, the quantity of histamine in culture supernatants was measured using an ELISA kit according to the supplier's instructions. The inter-group comparisons were performed by Student's t-test for data management. Results are expressed in % according to the following formulas: [formula] [formula]

[6] = system: mast cells (Peritoneal cells from Wistar rat including ~50% mast cells); test: Histamine release from mast cells after CP48/80-induced degranulation (ELISA); assay type: cell-based
Method: FIG. 2: Evaluation by Elisa assay of histamine release after induced mast cells degranulation. Protocol: in vitro test on mast murine cells, peritoneal cells from Wistar rat including ˜50% mast cells, re-treatment with Embelia extract for 15 min, stimulation with CP48/80 (10 μg/ml) for 20 min, tested vs cromoglycate (10 nM) as standard reference. Test was performed with liquid Embelia extract according to example 1 comprising 7.3% dry matter to measure its activity on degranulation of mast cells (Peritoneal cells from Wistar rat including ˜50% mast cells) stimulated with CP48/80. Effects on degranulation were evaluated by measuring histamine release after stimulation. Cells were cultured at 37° C., 5% CO2 and culture medium concerned EBSS supplemented with CaCl2 1.8 mM, MgCl2 0.8 mM and Bovine serum albumine (BSA) 0.1%. Mast cells were seeded in culture medium containing or not containing (control) the test compound or the reference (cromoglycate at 10 mM) and cells were pre-incubated for 20 minutes. Cells were then stimulated or not stimulated (non-stimulation control) with histamine release inducer CP48/80 at 10 μg/ml and incubated for 20 minutes. All experimental conditions were performed in n=3. At the end of incubation, the quantity of histamine in culture supernatants was measured using an ELISA kit according to the supplier's instructions. The inter-group comparisons were performed by Student's t-test for data management. Results are expressed in % according to the following formulas: [formula]

human neutrophils [7] = test: PGE2 release by neutrophils stimulated with opsonised zymosan (ELISA); assay type: cell-based; conditions: for PGE2: Indomethacin 1 μM
Method: as §1, with “p<0.01**).” for “p<0.01**). The percentage of inhibition was calculated as follows: % inhibition=100×[(LTB4 treated with ECC (stimulated)/LTB4 control (stimulated)×100]”

[8] = Capsazepine 30 μM, capsaicin (0.3 μM)
[9] = Rattus norvegicus, Neuron, Capsazepine 30 μM, capsaicin (0.3 μM)
[10] = individual values, Capsazepine 30 μM, capsaicin (0.3 μM)
[11] = Cromoglycate 10 mM, CP48/80 at 10 μg/ml

## C[C@H]1[C@H](C)CC[C@]2(C)CC[C@]3(C)C(=CC[C@@H]4[C@@]5(C)CC[C@@H](O)[C@](C)(C(=O)O)[C@@H]5CC[C@]43C)[C@H]12 [Boswellic acid]
Human neutrophils [1]; Homo sapiens, Neutrophil, Boswellic acid 10 μg/ml, positive control
  inhibition at 10 µg/mL: 45%

## Oc1cc2c(cc1O)CN(C(=S)NCCc1ccc(Cl)cc1)CCC2 [Capsazepine]
[2]; [8]
  % Stimulated Control (%): 9%
  Mean Substance P: 23 pg/mL
[2]; [9]
  inhibition at 30 µM: 99%
[2]; capsazepine 30 μM
  effect on capsaicin-stimulated substance P release: significantly inhibited this effect
[2]; [10]
  Substance P: 23 pg/mL
[3]; [8]
  Mean CGRP: 642 pg/mL
  Stimulated Control (%): 39%
[3]; [9]
  inhibition at 30 µM: 64%
[3]; capsazepine 30 μM
  effect on capsaicin-stimulated CGRP release: significantly inhibited this effect
[3]; [10]
  CGRP: 671 pg/mL and 698 pg/mL and 557 pg/mL
[4]; Table 6 (substance P experiment)
  Viability (MTT) % Stimulated Control: 96%
[4]; Table 7 (CGRP experiment)
  Viability (MTT) Stimulated Control (%): 114%

## O=C(O)c1cc(=O)c2c(OCC(O)COc3cccc4oc(C(=O)O)cc(=O)c34)cccc2o1 [Cromoglycate]
[5]; [11]
  Inhibition (%): 42%
  Mean Histamine: 29.5 nM
  Stimulated Control (%): 71%
[5]; cromoglycate 10 mM
  effect on CP48/80-stimulated histamine release: significantly inhibited this effect
[5]; individual values, Cromoglycate 10 mM, CP48/80 at 10 μg/ml
  Histamine: 32.3 nM and 27.0 nM and 29.0 nM
[6]; [11]
  Inhibition (%): 81%
  Mean Histamine: 11.7 µM
  Stimulated Control (%): 20%
[6]; cromoglycate 10 mM
  effect on CP48/80-stimulated histamine release: significantly inhibited this effect

## COc1ccc2c(c1)c(CC(=O)O)c(C)n2C(=O)c1ccc(Cl)cc1 [Indomethacin]
Human neutrophils [7]; Indometacin 1 μM, positive control
  inhibition of PGE2 release: 51%
Human neutrophils [7]; (NS) not stimulated
  PGE2: 60 pg/mL
Human neutrophils [7]; (S) stimulated with opsonised zymosan
  PGE2: 77.0 pg/mL

## Cc1ncc([N+](=O)[O-])n1CCO [Metronidazole]
Human neutrophils [1]; Homo sapiens, Neutrophil, metronidazole 5 μg/ml, positive control
  inhibition at 5 µg/mL: 100%
Human neutrophils [1]; Metronidazole (10 μg/ml), (S) stimulated with opsonised zymosan
  LTB4: 530 pg/mL
